Source: patent US20150352114A1, “MITOTIC KINESIN Eg5 INHIBITING ANTICANCER AGENTS” (THE CLEVELAND CLINIC FOUNDATION, priority 2014, published 2015)

Tests used:
08-387 GSCs = assay: Transwell in vitro invasion assay; format: cell-based, human
Method: 08-387 GSCs enriched in G1 (8 hours post final thymidine release) were pre-exposed to vehicle or ispinesib (200 to 0 nM at a two-fold dilution) for one hour prior to being seeded onto Matrigel coated FluoroBlok Cell Culture Inserts at 125,000 cells per insert (±vehicle or ispinesib, plated in triplicate) with Neurobasal media supplemented with 10% FBS in the lower reservoir (BD Falcon, Franklin Lakes, N.J.). After 8 hours, membranes were processed for analysis with nuclei stained with DAPI. Nuclei on the lower surface of the membrane within the central field were scored using the 20× objective on a Leica DMIRB inverted microscopes.

3691 GBM cells = assay: Subcutaneous flank tumor study, 3691 GBM xenograft; format: in vivo, mice
Method: All animal studies described were approved by the Cleveland Clinic Foundation Institutional Animal Care and Use Committee and conducted in accordance with the NIH Guide for the Care and Use of Laboratory Animals. For subcutaneous tumor studies, 1×10^5 freshly dissociated GBM cells from a xenograft originally derived from a primary GBM patient specimen (3691) were injected into the flanks of 10 six week old female athymic nu/nu mice. Tumors were allowed to reach approximately 0.12 cm^3, at which point animals were randomized into either vehicle control (DMSO) group or ispinesib (10 mg/kg given daily for 7 consecutive days by intraperitoneal injection) (Selleck Chemicals, Houston, Tex.). Tumors were monitored and measured daily using perpendicular diameter measurements for 7 days. Tumor volume was calculated using the ellipsoid formula π/6×larger diameter×(smaller diameter)^2. After the last treatment on Day 7, tumors were removed and weighed then processed for immunofluorescence (as described below). For intracranial implantation studies to evaluate tumor initiation by GSCs, the cells were isolated as described below and pre-exposed to drug or vehicle either in vitro or in vivo. For in vitro pre-exposure studies, GSCs from xenograft 3691 were seeded at single cell density and treated with vehicle or ispinesib (3 nM) for 18 hours (300,000 cells per condition). Drug was then washed off and 2,500 or 25,000 viable GSCs were implanted into the right frontal lobes of male NSG mice (n=10 for vehicle, n=7 for ispinesib). For in vivo pre-exposure studies, subcutaneous tumors were established as described above. When tumors reached ˜0.5 cm^3, mice were randomized into a vehicle (DMSO) or ispinesib (10 mg/kg given daily for 3 consecutive days) group. 4 hours after the final treatment, GSCs were isolated as described below and 1,000 or 10,000 viable GSCs were then intracranially implanted into NSG mice (10 mice per group). Mice were monitored daily for neurological impairment at which time they were sacrificed and brains removed to evaluate for tumor development. […]

GSCs = assay: Limiting dilution assay and sphere formation (self-renewal); format: cell-based, human; conditions: pretreatment 18 hours with 3 nM; scored ten days later
Method: GSCs were isolated from subcutaneous flank xenografts of patient-derived specimens by magnetic sorting as described above and allowed to recover overnight. The next day cells were exposed to vehicle or 3 nM ispinesib for 18 hours. Cells were then washed and triturated into a single cell suspension. Cell sorting was performed using a FACS Aria II Cell Sorter (BD Biosciences, Franklin Lakes, N.J., USA) to plate the cells into 96 well plates at a final cell number per well of 1 (38 wells/plate), 5 (24 wells/plate), 10, 20, or 50 (all at 12 wells/plate). Tumorsphere formation was evaluated 10 days after sorting and wells were scored positive or negative for the presence of at least one tumorsphere. The estimated stem cell frequency was calculated using extreme limiting dilution analysis. Only live cells were selected for using Live/Dead dye blue (Life Technologies).

[1] = system: pCRMP2 (T514) in interphase GSCs; assay: CRMP2 phosphorylation immunoblot; format: cell-based, human; conditions: 200 nM; 6-hour time course; GSCs
Method: FIGS. 8(A-B) illustrate that Eg5 impacts microtubule growth through the CRMP-tubulin deposition pathway; (A) 08-387 GSCs enriched in interphase were exposed to vehicle (DMSO) or ispinesib (200 nM) and harvested for whole cell lysates every two hours over a 6 hour time course. Resulting lysates were probed for CRMP2 and pCRMP2 (T514); (B) Human brain microvascular endothelial cells (HuBrMVECs) were treated with vehicle (DMSO) or ispinesib (200 nM) and harvested for whole cell lysates every three hours over a 6 hour time course. Resulting lysates were probed for CRMP2 and pCRMP2 (T514); For all immunoblots, βactin served as a loading control. Molecular weight (MW) of resulting bands is given in kilodaltons (kD).
Protein extracts were made using a 50 mM Tris pH 8.0, […] NaCl, 0.5% NP-40 lysis solution. Resulting lysates were ran on 10% SDS-PAGE gels and transferred to Immobilon-FL PVDF (Millipore Corp., Billerica, Mass.). The membranes were blocked with 5% (wt/vol) bovine serum albumin in PBS-Tween-20 (0.2% vol/vol) and probed with primary antibodies against Eg5 (mouse, 1:4000, BD Biosciences, San Jose, Calif.), Olig2 (rabbit, 1:1000, abcam, San Francisco, Calif.), GFAP (DAKO; 1:10,000, Carpinteria, Calif.), CRMP2 (mouse, 1:1000, abgent, San Diego, Calif.), pCRMP2(T514) (rabbit, 1:1000, Cell Signaling, Beverly, Mass.), or β-actin (mouse, 1:8000, Sigma-Aldrich, St. Louis, Mo.) as a loading control. Secondary antibodies (LI-COR) were incubated in TBST+0.02% SDS and visualized with the LI-COR Odyssey near infrared imaging system (Lincoln, NB).

With `Cc1ccc(C(=O)N(CCCN)[C@@H](c2nc3cc(Cl)ccc3c(=O)n2Cc2ccccc2)C(C)C)cc1` [ispinesib, N-(3-amino-propyl)-n-[R-1-(3-benzyl-7-choloro-4-oxo-3,4-dihydroquinazolin-2-yl)-2-methyl-propyl]-4-methyl-benzamide methanesulfonate] the “fewer cells migrated per field compared to vehicle control” value (08-387 GSCs; 200 nM) was “approximately 6 fold”, the EC50 (08-387 GSCs; Homo sapiens, 8 h, read-out: EC50, Transwell migration) was 67.2 nM and the Transwell migration (08-387 GSCs; interphase-enriched cells, 8 hours) was “completely block”. For the same molecule, the tumor volume (3691 GBM cells; 10 mg/kg daily intraperitoneal, 7 consecutive days) was “significantly reduced”, the tumor weight (3691 GBM cells; 10 mg/kg daily intraperitoneal, 7 consecutive days, day 7) was “significantly reduced” and the “Sox2 positive cells in end stage tumors” value (3691 GBM cells; 10 mg/kg daily, 7 days) was “no Sox2 positive cells”. The “stem cell frequency (tumorsphere formation)” value (GSCs) was “significantly compromised” and the “phospho-CRMP2 (T514)” value [1] was “significant increase”.
